Results reported in patent US20180133203A1, “METHODS OF TREATING LIVER DISEASE” (Gilead Sciences, Inc., priority 2016, published 2018).

Columns and labels:
[1] = tested on: CDHFD/NaNO2 rats; assay: Liver hydroxyproline content in CDHFD/NaNO2 rat model of NASH; assay type: in vivo, male Wistar rats; conditions: vs vehicle-treated CDHFD/NaNO2 rats; Formula (I) 0.2% in diet, Formula (III) 30 mg/kg/day, week 4 to 14
Procedure: The following study was conducted to evaluate the efficacy of the combination of an ASK1 inhibitor and an FXR agonist in a rodent model of non-alcoholic steatohepatitis (NASH), relative to the efficacy of the individual agents alone in the model. NASH was induced in male Wistar rats by administration of a choline-deficient high fat diet (CDHFD) combined with the chronic administration of sodium nitrite (CDHFD/NaNO2). The model capitalizes on the “two hit theory” of NASH by inducing both metabolic dysfunction (CDHFD) and oxidative stress (NaNO2) in the liver to result in hepatic fibrosis that is similar in character and severity to that seen in patients with advanced NASH. Rats were fed CDHFD for a total of 14 weeks and were administered NaNO2 from week 4 to 14. […] The following endpoints were assessed at the completion of the 14 week study: i) liver fibrosis measured by liver hydroxyproline (OHP) content and by quantitative morphometric analysis of collagen content by Picosirius red (PSR) staining; ii) myofibroblast activation in liver sections as measured by quantitative IHC of the myofibroblast marker desmin; and, iii) Col1a1 and Timp1 in liver tissue measured by RT-PCR. […] All endpoints were assessed at the completion of the 14 week study protocol. […] The hydroxyproline content was determined photometrically by measuring the absorbance at 560 nm. […]

[2] = tested on: FFD mice; assay: Total liver cholesterol content in FFD mouse model of NASH; assay type: in vivo, male C57BL/6 mice; conditions: Formula (I) 0.15% admixture in diet, Formula (III) 10 mg/kg PO QD, months 7-10
Procedure: The following study was conducted to evaluate the efficacy of the combination of an ASK1 inhibitor and an FXR agonist in a mouse model of non-alcoholic steatohepatitis (NASH), relative to the efficacy of the individual agents alone in the model. NASH was induced in male C57BL/6 mice by chronic administration of a “fast food” diet (FFD) high in saturated fats, cholesterol and sugars for a total of 10 months, whereas lean control animals were maintained on a normal chow diet. A NASH phenotype was established in FFD mice compared to control mice by 7 months, and was characterized by obesity, hypercholesterolemia, and AST/ALT elevation; and by histological features of NASH such as hepatocellular macrovesicular steatosis and ballooning degeneration. […] Endpoint analyses included morphometric quantification of liver steatosis (% of steatotic area), liver cholesterol content, serum ALT/AST levels, serum bile acid levels, and nanostring evaluation of gene expression. […] After centrifugation, an aliquot of the organic upper layer, containing cholesterol and cholesterol esters, was analyzed. […] The peak area of the m/z 369 [M-H2O]+→161+ product ion of cholesterol was measured against the peak area of the cholesterol-D6 product ion of m/z 375 [M-H2O]+→167+. […]

| SMILES | reduction of liver hydroxyproline content [1] | reduction of liver cholesterol content [2] |
| --- | --- | --- |
| O=C(Nc1cccc(-c2nncn2C2CC2)c1)c1cc(-n2cnc(C3CC3)c2)ccn1 [Formula (I)] | did not significantly reduce | 74% |
| O=C(O)c1ccnc(N2CC(O)(c3ccc(OCc4c(-c5c(Cl)cccc5Cl)noc4C4CC4)cc3Cl)C2)c1 [Formula (III)] | did not significantly reduce | 36% |
